Among the test systems are LXFL 529; DMS-273; DLD-1; DMS-114; HOP-18; KM-20L2; RXF 631; SNB-78; XF498.
Holding throughout (test): NCI-60 cell line screen, 48 h

Structures are written as SMILES.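 Test compounds were applied to cells in 96-well plates for 48 hours at 5 doses. At the GI50, growth is halved.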 The source made the active and inactive calls. No stated cut-off is given here; in the data, active = GI50 up to about 1.1 µM and inactive = higher.

On to `Cc1ccccc1N(CCC#N)C1=NN(C(=O)CC(=O)Nc2ccc(Cl)cc2)C(c2ccccc2)C1` (centres undefined), for which the GI50 in the assay on LXFL 529, in the assay with DMS-273, in the assay with DLD-1, in the assay with DMS-114, in the assay with HOP-18 and in the assay with KM-20L2 was > 100 µM (inactive) throughout. The GI50 in the assay with RXF 631 and in the assay with SNB-78 was > 100 µM (inactive) in each case.
Consider `Cc1c(C(=O)Nc2ccc(Cl)cc2)nc(N)nc1-c1cccc(Cl)c1`, for which the GI50 is > 10 µM (inactive) in the assay on LXFL 529; > 100 µM (inactive) with DMS-273; > 100 µM (inactive) in the assay on DLD-1; 94.4 µM (inactive) with DMS-114; > 100 µM (inactive) with HOP-18; 45.4 µM (inactive) with KM-20L2. Besides, the GI50 is 52.1 µM (inactive) in the assay with RXF 631 and > 100 µM (inactive) in the assay on SNB-78.
On to `CCC1(CN(C)C)CC/C(=C\c2ccc(OC)c(OC)c2)C1=O` (centres undefined), for which the GI50 in the assay with LXFL 529 was > 92 µM (inactive); in the assay with DMS-273, > 100 µM (inactive); in the assay on DLD-1, > 80.7 µM (inactive); in the assay with XF498, > 100 µM (inactive); with DMS-114, 99.8 µM (inactive); with HOP-18 it was > 100 µM (inactive). The figures for the GI50 in the assay with KM-20L2, in the assay with RXF 631 and in the assay with SNB-78 were 51.9 µM (inactive), > 100 µM (inactive) and > 100 µM (inactive), respectively.
As for `O=c1cccccc1NCCCCNc1cccccc1=O`, the GI50 with LXFL 529 was 48.8 µM (inactive); in the assay on DMS-273 it was > 100 µM (inactive); with DLD-1, 57.3 µM (inactive); with DMS-114 it was 31.3 µM (inactive); in the assay with HOP-18, > 100 µM (inactive); in the assay on KM-20L2 it was > 100 µM (inactive). The GI50 in the assay with RXF 631 and in the assay with SNB-78 was > 100 µM (inactive) each time.
Regarding `C/C(=N\N=C(/S)N1CC2CCC(CC2)C1)c1cccc[n+]1[O-]`, the GI50 in the assay on DMS-273 is 2.62 µM (inactive); with DLD-1, 2.06 µM (inactive); with XF498 it was 21.4 µM (inactive); in the assay with DMS-114, 1.35 µM (inactive); with HOP-18, 30.3 µM (inactive); in the assay with KM-20L2, 1.52 µM (inactive). The GI50 in the assay with RXF 631 was 3.45 µM (inactive); in the assay on SNB-78, 8.34 µM (inactive).
As to `COC[C@@H](/N=C/N1CCc2cc(OC)c(OC)cc2[C@@H]1C)C(C)(C)C`, the GI50 in the assay on LXFL 529, in the assay with DLD-1, in the assay with XF498, in the assay on DMS-114, in the assay with HOP-18 and with KM-20L2 was > 100 µM (inactive) in each case. Moreover, the GI50 in the assay on RXF 631 was > 100 µM (inactive).
Take `CC(=O)C1(O)CCC2(O)C3(O)CC=C4CC(O)CCC4(C)C3CC(OC(=O)c3ccc(O)cc3)C12C.COC1CC(OC2C(C)OC(OC3C(C)OC(OC4CCC5(C)C(=CCC6(O)C5CC(OC(=O)c5ccc(O)cc5)C5(C)C(O)(C(C)=O)CCC65O)C4)CC3OC)CC2OC)OC(C)C1O` (centres undefined): the GI50 was 24.9 µM (inactive) in the assay on LXFL 529; 36.2 µM (inactive) in the assay on DMS-273; 36.6 µM (inactive) with DLD-1; 2.03 µM (inactive) in the assay on XF498; 38.7 µM (inactive) with HOP-18; 76 µM (inactive) with RXF 631. In addition, the GI50 in the assay with SNB-78 was 20.6 µM (inactive).
For the compound `O=C(CCc1nnc2s/c(=C\c3ccccc3[N+](=O)[O-])c(=O)n12)Nc1cc(Cl)c(Cl)cc1Cl`, the GI50 in the assay on LXFL 529 was 21.8 µM (inactive); in the assay with DMS-273, 54.3 µM (inactive); in the assay with DLD-1, 25.2 µM (inactive); in the assay on XF498, 22.6 µM (inactive); in the assay with DMS-114, 49.3 µM (inactive); with HOP-18, 18.3 µM (inactive). Also, the values for the GI50 in the assay on KM-20L2, with RXF 631 and in the assay on SNB-78 were 54 µM (inactive), 47.1 µM (inactive) and 35.2 µM (inactive), respectively.
Regarding `CC(C)NC(=O)O/N=C1\CCC2[C@@H]3CC=C4C[C@@H](OC(=O)NC(C)C)CC[C@]4(C)C3CC[C@]12C` (some centres undefined), the GI50 in the assay on LXFL 529 is 0.912 µM (active); with DMS-273 it was 1.31 µM (inactive); in the assay with DLD-1, 2.53 µM (inactive); in the assay with DMS-114, 0.664 µM (active); in the assay with HOP-18, 1.84 µM (inactive); in the assay on KM-20L2, 2.59 µM (inactive). For the same compound, the GI50 in the assay with RXF 631 is 1.32 µM (inactive); in the assay with SNB-78, 2.29 µM (inactive).
Regarding `Nc1ccccc1S(=O)(=O)N(CC(=O)O)c1ccccc1`, the GI50 in the assay on LXFL 529, in the assay with DMS-273, with DLD-1, in the assay with XF498, with HOP-18 and in the assay with KM-20L2 was > 100 µM (inactive) each time. Moreover, the GI50 in the assay on RXF 631 was > 100 µM (inactive).

(Values after ChEMBL document CHEMBL1201862, “PubChem BioAssay data set” (2004).)
